Test results published in US7998937B2, “Flavonoid compound having an antiviral activity” (Korea Research Institute of Bioscience and Biotechnology, priority 2005, dated 2011).

Columns and labels:
[1] = test system: porcine transmissible gastroenteritis virus (TGEV); assay: Anti-coronavirus inhibitory activity against TGEV in ST cells; assay type: cell-based; conditions: 48 hours
Protocol: (§1) Antiviral activity of quercetin-7-rhamnoside against porcine transmissible gastroenteritis virus (TGEV) and porcine respiratory coronavirus (PRCV), another kind of coronaviruses, was evaluated. ST cells were cultured on a 96-well microplate until the bottom of each well was completely covered with cells. Remaining culture medium was completely removed and each well was washed twice with a phosphate buffer. TGEV or PRCV solution adjusted to a concentration of TCID50 was added to each well. Each of quercetin-7-rhamnoside, conventional antiviral agents purchased from Sigma-ribavirin, lamivudine, azidovudine, acycloguanine and glycyrrhizhin-dissolved in dimethyl sulfoxide was added to each well to a final concentration of 0.1-100 μg/mL. […] Similarly to the aforesaid evaluation of antiviral inhibitory activity against PEDV, c ells treated with DMSO only and those treated with both DMSO and TGEV or both DMSO and PRCV were used as control groups.

[2] = test system: porcine respiratory coronavirus (PRCV); assay: Anti-coronavirus inhibitory activity against PRCV in ST cells; assay type: cell-based; conditions: 48 hours
Protocol: as §1

[3] = test system: influenza type A (H1N1/WS/33) virus; assay: Antiviral activity against influenza type A virus in MDCK cells (SRB); assay type: cell-based, influenza virus type A (H1N1; WS/33 strain); conditions: 10 μg/mL, influenza A H1N1/WS/33 in MDCK cells, 48 hours, repeated 3 times
Protocol: In order to evaluate the inhibitory activity of quercetin-7-rhamnoside against influenza virus, the following in vitro test was performed using MDCK cells derived from dog kidney.
Inhibitory activity of quercetin-7-rhamnoside against viral proliferation was measured by the method proposed by Kwon Dur-Han, et al. (Korean Patent Application No. 2004-101863). Inhibitory activity against influenza virus type A (H1N1; WS/33 strain) was measured. MDCK cells were cultured on a 96-well microplate until the bottom of each well was completely covered with cells. Remaining culture medium was completely removed and each well was washed twice with a phosphate buffer. Each of quercetin-7-rhamnoside; conventional antiviral agents purchased from Sigma-ribavirin and amantadine; oseltamivir (trade name: Tamiflu) purchased from Roche; and zanamivir (trade name: Relenza) purchased from Glaxo Wellcome; dissolved in dimethyl sulfoxide was added to each well to a final concentration of 10 μg/mL. […] After adding 100 μL of 70% acetone, each well was kept at −20° C. for 1 hour. After drying in a desiccator, 100 μL of 0.4% (w/v) SRB (sulforhodamine B) solution dissolved in 1% (v/v) acetic acid was added. After 30 minutes' staining, the SRB staining solution not bound to the cells was washed off with 1% (v/v) acetic acid for 4 times. After drying, 100 μL of 10 mM Tris solution (pH 10.5) was added to each well to dissolve the stained substance at the bottom of the well. Light absorbance was measured at 562 nm to evaluate the antiviral activity. As control group, viability of cells treated with DMSO only was compared with those treated with both DMSO and virus. Each test was repeated 3 times.

[4] = test system: influenza type B (B/Lee/40) virus; assay: Inhibitory activity against influenza type B virus in MDCK cells (SRB); assay type: cell-based; conditions: 10 μg/mL, influenza B/Lee/40 in MDCK cells, 48 hours, repeated 3 times
[5] = test system: rotavirus (strain: OSU); assay: Inhibitory activity against rotavirus in MA104 cells (SRB); assay type: cell-based; conditions: 10 μg/mL, rotavirus OSU in MA104 cells, 48 hours, repeated 2 times
Protocol: (§2) In order to evaluate the inhibitory activity of quercetin-7-rhamnoside against rota virus, the following in vitro test was performed using MA014 cells derived from pig kidney. Inhibitory activity of quercetin-7-rhamnoside against viral proliferation was measured by the method proposed by Kwon Dur-Han, et al. (Korean Patent Publication No. 2004-101863). Inhibitory activity against rotavirus (strain: OSU) was measured. MA104 cells were cultured on a 96-well microplate until the bottom of each well was completely covered with cells. Remaining culture medium was removed and each well was washed twice with a phosphate buffer. A rota virus solution adjusted to a concentration of TCID 50 was added to each well. […] After 48 hours, the MA104 cells were observed under a microscope. After adding 100 μL of 70% acetone, each well was kept at −20° C. for 1 hour. After drying in a desiccator, 100 μL of 0.4% (w/v) SRB (sulforhodamine B) solution dissolved in 1% (v/v) acetic acid was added. After 30 minutes of staining, the SRB solution not bound to the cells was washed off with 1% (v/v) acetic acid for 4 times. After drying, 100 μL of 10 mM Tris solution (pH 10.5) was added to each well to dissolve the stained substance at the bottom of the well. Light absorbance was measured at 562 nm to evaluate the antiviral activity. As control group, viability of cells treated with DMSO only was compared with those treated with both DMSO and virus. Each test was repeated for 2 times.

[6] = test system: rhinovirus (strain: rhinovirus 2); assay: Inhibitory activity against rhinovirus in HeLa cells (SRB); assay type: cell-based; conditions: 10 μg/mL, rhinovirus 2 in HeLa cells, 48 hours, repeated 3 times
Protocol: as §2, with “against rhino” for “against rota”, “using HeLa, one of human cervical cancer cell lines, cells.” for “using MA014 cells derived from pig kidney.”, “2004-101863). […] HeLa” for “2004-101863). Inhibitory activity against rotavirus (strain: OSU) was measured. MA104”, “A rhino” for “A rota”, “the HeLa” for “the MA104”, “for 3” for “for 2”

[7] = test system: mice; assay: Toxicity test in mice; assay type: in vivo; conditions: 10 g/kg, dissolved in DMSO and diluted with water, observed for 7 days
Protocol: Toxicity test was performed as follows for the quercetin-7-rhamnoside of the present invention.
Quercetin-7-rhamnoside dissolved in dimethyl sulfoxide (DMSO) and diluted with water was administered to mice (10 per each group) at a dosage of 10 g/kg.

[8] = test system: ST cells; assay: Cytotoxicity (CC50) in ST cells; conditions: 0.1-100 μg/mL, 48 hours
[9] = test system: Vero cells; assay: Cytotoxicity (CC50) in Vero cells; conditions: 0.1-100 μg/mL, 48 hours
[10] = test system: porcine epidemic diarrhea virus (PEDV); assay: Antiviral activity against PEDV in Vero cells (SRB staining); conditions: PEDV in Vero cells, maximum dosage 100 μg/mL, 48 hours

How did the IC50 [1] turn out when `C[C@@H]1O[C@@H](Oc2cc(O)c3c(=O)c(O)c(-c4ccc(O)c(O)c4)oc3c2)[C@H](O)[C@H](O)[C@H]1O` [Quercetin-7-rhamnoside, quercetin-7-rhamnoside] was run?
Its IC50 is “(63.3 μg/mL)]”.

And the IC50 [2]?
The IC50 was “(59.8 μg/mL)]”.

What about the “Inhibitory activity (%) (Mean ± S.D.)” value [3] of the same compound?
Its value is 66.03%.

What about the “Inhibitory activity (%) (Mean ± S.D.)” value [4] of the same compound?
The value was 92.66%.

What about the “Inhibitory activity (%) (Mean ± S.D.)” value [5] of the same compound?
Its value is 77.37%.

And the “Inhibitory activity (%) (Mean ± S.D.)” value [6]?
Its value is 77.89%.

What about the deaths after administration [7] of the same compound?
The deaths after administration was “none of them were found dead”.

And the CC50 [8]?
Its CC50 is over 100 µg/mL.

And the “CC50 (concentration required for 50% cytotoxicity)” value [9]?
The value was over 100 µg/mL.

And the “IC50 (concentration required for 50% inhibition of viruses)” value [10]?
The value was “(0.014 μg/mL)]”.
